As a reminder, the IC50 is the concentration that gives 50% inhibition.

The results in this text go back to patent US20120190666A1, “Heteroaryl Compounds as PIKK Inhibitors” (Amgen Inc., priority 2009, published 2012).

One assay has as its target mTOR (Homo sapiens, UniProt P42345). The assay can be described thus: mTOR LanthaScreen (TR-FRET, phosphorylation of 4EBP1). The assay is classed as biochemical. The conditions noted are these: phosphorylation of GFP-4E-BP1, 10 μM ATP, 90 minutes. How it is done: The mTOR LanthaScreen is a TR-FRET assay measuring the phosphorylation of mTOR's substrate 4EBP1. 384 well compound plates were prepared containing 1 μl of compound per well starting at 5 mM and diluted 1:2 across the row, resulting in a 22 well serial dilution. 24 μl of assay buffer (Invitrogen, PV4794) with 2 mM DTT was added to the compound plate in rows 1-24 using the VELOCITY 11™ VPREP™ 384 ST resulting in a DMSO concentration of 4%. The compound plate was mixed and 2.5 μl of serially diluted compound or controls was added to the assay plate (Costar, 3658).
The assay was conducted on the PerkinElmer® FlexDrop PLUS. A 5 μl mix of 800 nM GFP-4E-BP1 (Invitrogen, PV4759) and 20 μM ATP (Amgen) was added to rows 1-24. 2.5 μl of 0.6 μg/ml of mTOR Enzyme (Amgen) was added to rows 1-23. 2.5 μl of assay buffer was added to row 24 for the low control. The final concentration of the compounds was 50 μM serially diluted to 23.84 pM in 1% DMSO. […] The final concentrations in the assay reagents were 400 nM GFP-4E-BP1, 10 μM of ATP and 0.15 μg/ml of mTOR enzyme. The compound, enzyme, and substrate were incubated for 90 minutes. At this point, 10 μl of stop solution was added (20 mM Tris, pH 7.5 (Invitrogen, 15567-027), 0.02% Sodium Azide (Teknova, S0208), 0.01% NP-40 (Roche, 11754599001), 20 mM EDTA (Invitrogen, 15575-038) and 4 nM of Tb-anti-p4E-BP1 (Invitrogen, PV4758)) for a final concentration of 2 nM of Tb-anti-p4E-BP1.
Sixty minutes later the plates were read on the PerkinElmer® EnVision™ 2103 Multilable Reader using the Excitation filter 340 nm and the Emission filters 520 nm and 495 nm.

The test system of assay [1] is phosphorylation of Akt at Serine 473 in U87 MG cells. The assay can be described thus: pAkt AlphaScreen (U87 cell). The conditions noted are these: Homo sapiens, U-87 MG, 2 h; pAkt at Serine 473, U87 MG cells, two hours with compound. The format is cell-based. Here is the method:
The pAkt AlphaScreen® assay (PerkinElmer, Waltham, Mass.) determines whether there is phosphorylation of Akt at Serine 473 by recruitment of a phosphospecific antibody. This assay was performed using U87 MG cells. The U87 growth media consists of MEM (Gibco, Carlsbad, Calif.) supplemented with 10% FBS (Gibco), 1× Non-Essential Amino Acids (Gibco,) and 1× Penicillin/Streptomycin/Glutamine (Gibco). The cells were maintained weekly using 0.05% Trypsin (Gibco) and replated in 150 mm TC— Treated Culture Dishes (Corning, Corning, N.Y.).
The first day of the assay, the adherent cells were trypsinized, media was added to the loose cells and cells were mixed to a homogenous mixture. 0.5 ml of the homogenous mixture was counted on the Beckman Coulter® Vi-Cell™ XR (Fullerton, Calif.). 50 frames of cells were counted and the number of viable cells was determined. The cells were then diluted to 0.25 million cells per ml, and centrifuged at 200 rcf for 5 minutes. The media was removed and the cells were reconstituted in fresh media for plating. The cells were plated at 20 μl per well on the PerkinElmer® FlexDrop PLUS in Low Volume 384 Well White Tissue Culture Plates (Corning) with a final cell density of 5K cells per well. The plates were incubated overnight at 37° Celsius, 5% CO2.
On the second day, the compound plates were prepared, the cells were treated with compound and the pAkt reaction mix was added to the cell lysate. 384 well compound plates were prepared containing 1 μl of compound per well starting at 5 mM and diluted 1:2 across the row, resulting in a 22 well serial dilution. 39 μl of growth media was added to the compound plate in rows 1-22 using the PerkinElmer® FlexDrop PLUS resulting in a DMSO concentration of 2.5%. The cell plates and diluted compound plates were put onto the VELOCITY11™ VPREP™ 384 ST where the compound plate was mixed and 5 μl of serially diluted compound or controls was added to the cell plate. The final concentration of the compounds was 25 μM serially diluted to 11.9 pM in 0.5% DMSO.
The cell plates were then incubated with compound for two hours at 37° C., 5% CO2. After two hours, the media in the cell plates was aspirated using the BioTek® ELx405HT plate washer (Winooski, Vt.) removing the majority of media and compound without disturbing the adherent U87 cells. The following assay reagents are components of the SureFire® Akt (Ser 473) Phosphorylation 50K Point Kit (TGR BioSciences, Adelaide, Austalia) and an IgG Detection Kit (PerkinElmer, Waltham, Mass.). 5 μl of 1× Lysis Buffer was added to each well using the PerkinElmer® FlexDrop PLUS. The plates were then incubated at room temperature on a shaker for ten minutes. The AlphaScreen® reaction was prepared under low light conditions (subdued or green light) including p-Aid (Ser 473) Reaction Buffer, Dilution Buffer, Activation Buffer, Acceptor Beads and Donor Beads at a ratio of 40:20:10:1:1 respectively. The AlphaScreen® reaction was added to the cell lysate at 6 μl per well using the PerkinElmer® FlexDrop PLUS. The plates were placed in a humid environment to reduce edge effects and incubated overnight at room temperature with restricted air flow in the dark.
On the final day of the experiment, the plates were read on the PerkinElmer® EnVision™ 2103 Multilable Reader using the standard AlphaScreen® readout. The POC is calculated and the data is analyzed to report the IC50 IP for pAkt at Serine 473.
Activity data for the compounds tested in the PI3K cell based Akt assay is provided in Table 1 under the column heading U87
On the technique in general: Bead proximity is the source of the signal in Alpha formats.

The next assay concerns the target T1, PI3Kα (Homo sapiens, UniProt P42336).
T1 construct: Full length p110 subunits of PI3K α, β and δ, N-terminally labeled with polyHis tag; polyHis (N); made in house; host or cells: Sf9 insect cells (baculovirus)
Kind of assay: In vitro PI3K AlphaScreen assay, PI3Kα. The following applies: PI(4,5)P2 substrate, 20 minutes at room temperature, read-out: P13Kalpha IC50 um. The assay is classed as biochemical. How it is done:
The PI3K AlphaScreen® assay (PerkinElmer, Waltham, Mass.) measures the activity of a panel of four phosphoinositide 3-kinases: PI3Kα, PI3KIβ, PI3Kγ, and PI3Kδ. Each of these enzymes phosphorylates the 3′-hydroxyl group on phosphatidylinositiol (4,5)-bisphosphate (PIP2) to produce phosphatidylinositol (3,4,5)-trisphosphate (PIP3). This phosphorylation activity is measured using a GST-tagged PIP3 binding protein (Echelon Biosciences, Salt Lake City, Utah), an anti-GST-tagged Acceptor bead, and streptavidin-Donor bead. The interaction of biotinylated-PIP3 analog (IP4) and the PIP3 binding protein brings both Acceptor and Donor beads together producing, upon excitation of the Donor beads at 680 nm, a singlet oxygen species leading to the luminescent AlphaScreen® signal. When PIP3 is produced via phosphorylation of PIP2 by a PI3K, PIP3 competes with biotinylated-PIP3 analog (IP4) for binding to the PIP3 binding protein. In the absence of this interaction, proximity of the Donor and Acceptor beads is decreased, producing a loss of luminescent signal which is […] to PI3K activity. […] The enzyme reaction buffer is made using sterile water (Baxter, Deerfield, Ill.) and 50 mM Tris HCl pH 7, 14 mM MgCl2, 2 mM sodium cholate, and 100 mM NaCl. 2 mM DTT is added fresh the day of the experiment. The AlphaScreen® reaction buffer is made using sterile water and 10 mM Tris HCl pH 7.5, 150 mM NaCl, 0.10% Tween 20, and 30 mM EDTA. 1 mM DTT is added fresh the day of the experiment. The source plates for this assay are 384-well Greiner clear polypropylene plates containing test compounds at 5 mM and diluted 1:2 over 22 points. Columns 23 and 24 contain only DMSO as these are designated for positive and negative controls. Source plates are replicated into 384-well Optiplates (PerkinElmer, Waltham, Mass.), 0.5 μL/well, to make assay-ready plates. The different PI3K isoforms are each diluted in enzyme reaction buffer to 2× working solutions. PI3Kα is diluted to 1.6 nM, PI3Kβ is diluted to 0.8 nM, PI3Kγ is diluted to 15 nM, and PI3Kδ is diluted to 1.6 nM. Two different 2× substrate solutions are made in enzyme reaction buffer. In one solution, PI(4,5)P2 (Echelon Biosciences, Salt Lake City, Utah) is diluted to 10 μM and ATP is diluted to 20 μM. This solution is used in the assays testing PI3Kα and PI3Kβ. In a second solution, PI(4,5)P2 is diluted to 10 μM and ATP is diluted to 80 μM. This solution is used in the assays testing PI3Kγ and PI3Kδ. The AlphaScreen® reaction solutions are made using beads from the anti-GST AlphaScreen® kit (PerkinElmer, Waltham, Mass.). Two solutions are made in Alphascreen reaction buffer to 4× working concentrations. In one solution, biotinylated-IP4 (Echelon Biosciences, Salt Lake City, Utah) is diluted to 40 nM and streptavadin-Donor Beads are diluted to 80 μg/mL. In the second solution, PIP3-binding protein (Echelon Biosciences, Salt Lake City, Utah) is diluted to 40 nM and anti-GST-Acceptor Beads are diluted to 80 μg/mL. 10 μL/well of enzyme reaction buffer is added to Column 24 of the assay ready plates in place of enzyme. This is done for plates in the PI3Kα, β, and δ assays. Using a 384-well dispensing Multidrop (Titertek, Huntsville, Ala.), 10 μL/well of 2× enzyme (PI3Kα, β, δ) is added to Columns 1-23 of the appropriate assay ready plates (for PI3Kγ 10 μL is added to Columns 1-24). 10 μL/well of the appropriate substrate solution (the solution with 20 μM ATP for PI3Kα and β assays, and the solution with […] for PI3Kγ and δ assays) is then added to Columns 1-24 of the plates. Plates are then incubated at room temperature for 20 minutes. In the dark, 10 μL/well of the Donor Bead solution is added to Columns 1-24 of the plates to quench the enzyme reaction. The plates are incubated at room temperature for 30 minutes. Still in the dark, 10 μL/well of the Acceptor Bead solution is also added to Columns 1-24 of the plates. The plates are then incubated in the dark for 1.5 hours.

T1 sequence (P42336 whole entry): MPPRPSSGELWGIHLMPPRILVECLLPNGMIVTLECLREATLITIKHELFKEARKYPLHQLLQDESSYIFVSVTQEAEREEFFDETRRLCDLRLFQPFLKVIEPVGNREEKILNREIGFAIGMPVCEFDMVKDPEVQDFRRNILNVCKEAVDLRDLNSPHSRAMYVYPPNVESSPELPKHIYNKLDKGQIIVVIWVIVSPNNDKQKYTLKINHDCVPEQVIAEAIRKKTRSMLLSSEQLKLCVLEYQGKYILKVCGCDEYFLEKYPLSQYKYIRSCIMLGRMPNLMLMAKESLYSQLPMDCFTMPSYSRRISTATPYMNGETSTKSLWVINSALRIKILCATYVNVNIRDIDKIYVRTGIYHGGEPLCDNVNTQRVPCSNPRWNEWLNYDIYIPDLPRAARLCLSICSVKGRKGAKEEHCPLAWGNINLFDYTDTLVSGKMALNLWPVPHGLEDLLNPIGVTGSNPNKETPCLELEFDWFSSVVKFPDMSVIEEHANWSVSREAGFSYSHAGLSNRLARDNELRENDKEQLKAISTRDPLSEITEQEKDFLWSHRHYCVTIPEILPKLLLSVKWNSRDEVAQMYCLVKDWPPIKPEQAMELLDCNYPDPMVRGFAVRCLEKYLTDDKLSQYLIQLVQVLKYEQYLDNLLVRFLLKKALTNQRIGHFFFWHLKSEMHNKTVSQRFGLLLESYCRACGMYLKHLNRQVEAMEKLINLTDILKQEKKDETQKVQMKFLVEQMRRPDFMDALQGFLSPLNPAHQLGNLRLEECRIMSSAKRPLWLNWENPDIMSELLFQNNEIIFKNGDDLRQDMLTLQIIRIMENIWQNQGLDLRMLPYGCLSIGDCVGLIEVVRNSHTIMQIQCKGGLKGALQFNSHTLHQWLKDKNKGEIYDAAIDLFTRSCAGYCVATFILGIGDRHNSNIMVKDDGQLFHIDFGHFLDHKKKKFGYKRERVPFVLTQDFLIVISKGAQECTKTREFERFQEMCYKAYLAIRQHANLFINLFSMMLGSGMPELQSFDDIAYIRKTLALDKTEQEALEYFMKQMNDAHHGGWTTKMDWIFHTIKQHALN
T1 sequence (P27986 whole entry partner): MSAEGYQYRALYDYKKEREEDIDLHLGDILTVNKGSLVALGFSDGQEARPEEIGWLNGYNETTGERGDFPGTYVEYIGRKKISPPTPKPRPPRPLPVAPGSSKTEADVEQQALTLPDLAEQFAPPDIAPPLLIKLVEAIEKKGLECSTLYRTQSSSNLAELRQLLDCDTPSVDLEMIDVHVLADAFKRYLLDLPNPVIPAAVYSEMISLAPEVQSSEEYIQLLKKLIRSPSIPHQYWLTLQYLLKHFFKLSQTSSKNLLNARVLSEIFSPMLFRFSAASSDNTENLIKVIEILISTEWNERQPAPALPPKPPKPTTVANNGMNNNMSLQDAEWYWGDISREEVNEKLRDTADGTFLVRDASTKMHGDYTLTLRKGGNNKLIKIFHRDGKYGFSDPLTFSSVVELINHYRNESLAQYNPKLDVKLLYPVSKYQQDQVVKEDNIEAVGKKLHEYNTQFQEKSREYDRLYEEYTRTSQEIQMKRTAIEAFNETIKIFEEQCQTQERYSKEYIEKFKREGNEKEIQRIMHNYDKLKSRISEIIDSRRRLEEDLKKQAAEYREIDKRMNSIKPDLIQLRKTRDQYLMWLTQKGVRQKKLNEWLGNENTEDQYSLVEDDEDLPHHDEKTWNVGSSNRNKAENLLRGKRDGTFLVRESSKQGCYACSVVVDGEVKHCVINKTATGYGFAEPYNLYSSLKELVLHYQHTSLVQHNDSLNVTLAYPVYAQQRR

For `Cc1nc(N)cc(-c2c(Nc3ccn(S(C)(=O)=O)n3)nc3ccccn23)n1` [Cpd 217, 3-(6-amino-2-methyl-4-pyrimidinyl)-N-(1-(methylsulfonyl)-1H-pyrazol-3-yl)imidazo[1,2-a]pyridin-2-amine], the figures for the IC50 (at mTOR; in assay [1]) were 1.74 µM and 1.18 µM, respectively.
Take `Cc1nc(N)nc(-c2c(Nc3ccnn3C(=O)N3CCOCC3)nc3ccccn23)n1` [Cpd 201]: the 50% inhibitory concentration (IC50) on mTOR was determined as 0.25 µM; at PI3Kα, 1.39 µM.
Take `Cc1nc(NC(=O)Cc2ccc(F)cc2F)cc(-c2c(Nc3ccn(C)n3)nc3cccnn23)n1` [Cpd 129, 2-(2,4-difluorophenyl)-N-(2-methyl-6-(2-((1-methyl-1H-pyrazol-3-yl)amino)imidazo[1,2-b]pyridazin-3-yl)-4-pyrimidinyl)acetamide]: the IC50 stood at 4.94 µM on PI3Kα and 1.47 µM in assay [1].
As to `CNCCNC(=O)n1ccc(Nc2nc3cccnn3c2-c2cc(N)nc(C)n2)n1` [Cpd 258], the IC50 was 0.5 µM against mTOR and 0.03 µM on PI3Kα.
In the case of `Cc1nc(N)nc(-c2c(Nc3ccn[nH]3)nc3ccc(C(N)=O)cn23)n1` [Cpd 293, 3-(4-amino-6-methyl-1,3,5-triazin-2-yl)-2-(1H-pyrazol-5-ylamino)-imidazo[1,2-a]pyridine-6-carboxamide], the IC50 at PI3Kα is 0.3 µM; in assay [1] it was 0.71 µM.
With `Cc1nc(N)nc(-c2c(Nc3ccn(C(=O)NCCO)n3)nc3ccccn23)n1` [Cpd 198, 3-((3-(4-amino-6-methyl-1,3,5-triazin-2-yl)imidazo[1,2-a]pyridin-2-yl)amino)-N-(2-hydroxyethyl)-1H-pyrazole-1-carboxamide], the figures for the half-maximal inhibitory concentration (IC50) against mTOR and at PI3Kα were 0.11 µM and 2.21 µM, respectively.
